Test results as given in patent publication US20120046461A1, “STEROIDAL ANTI-HORMONE HYBRIDS” (Northeastern University, priority 2009, published 2012).
“And” between values parts separate entries of the source, which are not always exact repeats. Equal values may be shown once.

Legend:
SKBr3 cells = experiment: Anti-proliferative assay (MTS/PMS), SKBr3; format: cell-based; conditions: 72 h
Procedure: (§1) MCF-7 and SKBr3 cells were maintained in a 1:1 mixture of Advanced DMEM/F12 (Gibco) supplemented with nonessential amino acids, L-glutamine (2 mM), streptomycin ([…]), penicillin (100 units/mL), and 10% FBS. Cells were grown to confluence in a humidified atmosphere (37° C., 5% CO2), seeded (2000/well, 100 μL) in 96-well plates, and allowed to attach overnight. Compound or GDA at varying concentrations in DMSO (1% DMSO final concentration) was added, and cells were returned to the incubator for 72 h. At 72 h, the number of viable cells was determined using an MTS/PMS cell proliferation kit (Promega) per the manufacturer's instructions. Cells incubated in 1% DMSO were used as 100% proliferation, and values were adjusted accordingly. IC50 values were calculated from separate experiments performed in triplicate using GraphPad Prism.

MCF-7 cells = experiment: Anti-proliferative assay (MTS/PMS), MCF-7; format: cell-based; conditions: 72 h
Procedure: as §1

[1] = tested on: alkaline phosphatase in Ishikawa cells; experiment: Stimulation of alkaline phosphatase in Ishikawa cells (estrogenic potency); format: cell-based, human; conditions: for Ishikawa - RSA: relative stimulatory activity in comparison to E2 = 100%
Procedure: The methodology for determining estrogenic potency, estrogen receptor binding, and stimulation of an estrogen responsive gene in alkaline phosphatase in the Ishikawa cell was performed as described. (Stabile, et al. (2005) Cancer Res. 65:1459-1470; Perez-Soler (2007) Clin. Can. Res. 13(Suppl. 15):[…]; Nicholson, et al. (2000) British J. Cancer 82:501-513; Schiff, et al. (2004) Clin. Can. Res. 10 (supp.1):331s-336s).
(§2) The induction of AlkP in human endometrial adenocarcinoma cells (Ishikawa) grown in 96-well microtiter plates was performed as described. The cells were grown in Phenol red-free medium with estrogen-depleted (charcoal stripped) bovine serum in the presence or absence of varying amounts of the steroids across a dose range of at least 6 orders of magnitude. After 3 days, the cells were washed, frozen, thawed, and then incubated with 5 mM p-nitrophenyl phosphate, a chromogenic substrate for the AlkP enzyme, at pH 9.8. To ensure linear enzymatic analysis, the plates were monitored kinetically for the production of p-nitrophenol at 405 nm.
(§3) Each compound was analyzed in at least 3 separate experiments performed in duplicate. The Ki and RSA (RSA=ratio of 1/EC50 of the steroid analog to that of E2×100) were determined using the curve fitting program Prism. The results are shown below in FIGS. 1A-1C, 2, 3, and 4.

Human LBD-ERβ = molecular target: T1, Human LBD-ERβ (Homo sapiens, UniProt Q92731); experiment: Competitive binding to ERβ (RBA); conditions: for RBA ERβ: RBA against E2
T1 construct: Human LBD-ERα and Human LBD-ERβ
Procedure: (§4) A. Competitive Binding to Rat Cytosolic ER, Human LBD-ERα and Human LBD-ERβ
Biological evaluation used competitive binding assays with estradiol on the ERα-LBD. Binding affinities of the estradiol derivatives relative to E, were performed in incubations with the LBD of ERα. in lysates of Escherichia coli in which the LBD of human ERα (M250-V595) is expressed as described in Antonello, et al. (J. Med. Chem. (2006) 49:6642-6645), Morphy, et al. (J. Med. Chem. (2006), 49:4961-4970); Meunier (Accounts Chem. Res. (2007), and Ojima (Accounts Chem. Res. (2007). The assay was perfoiiued overnight in phosphate buffered saline +1 mM EDTA at RT. The competition for binding of [^3H]E2 to the LBD of the E2-derivatives in comparison to E2, relative binding affinity (RBA) was determined over a range of concentrations from 10^−12 to 10^−6M. After incubation, the media was aspirated, the plates were washed 3 times, and the receptor-bound radioactivity absorbed to the plates was extracted with methanol and counted.
(§5) The ability of the described ERα ligands to bind to the ER was determined through their RBA against E2, in the competitive binding assay described above.

[2] = molecular target: T2, LBD of human ERα (M250-V595) (Homo sapiens, UniProt P03372); experiment: Competitive binding of [3H]E2 to ERα-LBD (RBA); conditions: RBA against E2
T2 construct: the LBD of human ERα (M250-V595) is expressed; made in house; host or cells: Escherichia coli (lysates)
T2 sequence (P03372 250-595): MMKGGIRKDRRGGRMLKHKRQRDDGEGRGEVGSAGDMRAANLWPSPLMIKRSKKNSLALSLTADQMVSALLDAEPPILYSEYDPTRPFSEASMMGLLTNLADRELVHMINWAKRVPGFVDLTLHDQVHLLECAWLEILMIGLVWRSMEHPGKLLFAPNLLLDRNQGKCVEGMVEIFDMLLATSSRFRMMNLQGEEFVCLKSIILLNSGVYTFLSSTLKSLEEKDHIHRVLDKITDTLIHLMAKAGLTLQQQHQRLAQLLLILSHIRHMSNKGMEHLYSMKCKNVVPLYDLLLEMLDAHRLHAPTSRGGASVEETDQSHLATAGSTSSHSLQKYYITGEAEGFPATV
Procedure: as §4
Biological evaluation used competitive binding assays with estradiol on the ERα-LBD. […] After incubation, the media was aspirated, the plates were washed 3 times, and the receptor-bound radioactivity absorbed to the plates was extracted with methanol and counted.
as §5

[3] = tested on: MCF-7 (ER-positive) breast cancer cell line; experiment: Cellular proliferation of MCF-7 (ER-positive) breast cancer cells, mitomycin series; format: cell-based; conditions: MCF-7 cells, FIG. 2, 4, 5
Excerpt: Another series of biological assays (Litzenburger, et al., Clin. Can. Res. (2009) 15:226 and Georghis, et al., Can. Chemothera. Pharmacol. (1992) 29:290.) are run to evaluate the effect of the mitomycin moiety on cellular proliferation of MCF-7 (ER-positive) and MDA-231 (ER-negative) breast cancer cell lines.

[4] = tested on: alkaline phosphatase in Ishikawa cells; experiment: Inhibition of E2-stimulated alkaline phosphatase in Ishikawa cells; format: cell-based, human; conditions: Ki determined in the presence of I nm E2
Procedure: as §2, §3

T1 sequence (Q92731 264-498 limits assumed): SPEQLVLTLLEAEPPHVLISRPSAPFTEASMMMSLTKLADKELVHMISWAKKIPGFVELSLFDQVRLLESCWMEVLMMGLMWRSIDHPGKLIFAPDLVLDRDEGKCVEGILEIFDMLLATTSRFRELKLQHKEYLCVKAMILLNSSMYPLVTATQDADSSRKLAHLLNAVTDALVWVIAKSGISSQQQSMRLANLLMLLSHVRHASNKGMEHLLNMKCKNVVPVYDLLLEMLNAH

Geldanamycin-aminomethyl-triazolo-ethoxy Anti-Estrogen [Compound 3-13]
EC50 (SKBr3 cells): 710 ± 160 nM | EC50 (MCF-7 cells): 1200 ± 90 nM

Estradiol [Compound E2, reference compound]
EC50 ([1]; Ishikawa cells, read-out: EC50 of E2, alkaline phosphatase induction): ~0.2 nM

C[C@]12C[C@H](c3ccc(OCCN=[N+]=[N-])cc3)[C@@H]3c4ccc(O)cc4CC[C@H]3[C@@H]1CC[C@@H]2O [Compound 2-13, (8S,9R,11S,13S,14S,17S)-11-(4-(2-azidoethoxy)phenyl)-7,8,9,11,12,13,14,15,16,17-decahydro-13-methyl-6H-cyclopenta[a]phenanthrene-3,17-diol]
ER-subtype selectivity (Human LBD-ERβ; ERα vs ERβ): does not differentiate between ERα and ERβ | RBA ERβ (Human LBD-ERβ): 33.7±1.77 | RBA ERβ (Human LBD-ERβ; listed as drawing 40): 33.7 ± 1.77 | β/α (Human LBD-ERβ; ratio of RBA ERβ to RBA ERα): 0.86 | RBA ERα [2]: 39.3±9.0 and 39.3 | RBA ERα ([2]; listed as drawing 40): 39.3 ± 9.0

C[C@]12C[C@H](c3ccc(OCCOCCOCCN=[N+]=[N-])cc3)[C@@H]3c4ccc(O)cc4CC[C@H]3[C@@H]1CC[C@@H]2O [EH-N7-092, 11β-[4-(ω-azido-triethyleneglycoloxy)]-phenyl-estradiol]
Ishikawa - RSA [1]: 0%

Geldanamycin aminopentanamidocarbonylphenyl-methyl difluorocyclooctenyltriazolo-ethoxy Anti-Estrogen [Compound 3-17]
EC50 (MCF-7 cells): 17000 nM

CO[C@@]12[C@H](COC(N)=O)C3=C(C(=O)C(C)=C(N)C3=O)N1C[C@@H]1N[C@@H]12 [mitomycin C]
anti-proliferative response [3]: more potent in the MCF-7 vs. the MDA-231 cell lines

N-propargyl-N′-methyl-mitomycin C [EH-N9-006]
Ishikawa - RSA [1]: 0% | Ki [4]: 40 ± 4 nM

Geldanamycin-aminoheptaethylene glycolyl-triazolo-methylaminoethoxy Anti-Estrogen [Compound 3-15]
EC50 (MCF-7 cells): 102 ± 5 nM
